Test results published in patent publication US8987314B2, “Amide, urea or sulfone amide linked benzothiazole inhibitors of endothelial lipase” (Bristol-Myers Squibb Company, priority 2012, dated 2015).
pIC50: −log10 of the molar value. Where two headings read alike, the source gives them in different places.

Columns and labels:
Endothelial lipase (EL) = Endothelial lipase (EL) (Homo sapiens (Human), UniProt Q9Y5X9); assay: EL assay: endothelial lipase activity with fluorescent substrate A10070 in DMPG vesicles; format: biochemical
Summary of the method: (§1)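 Substrate A10070 sits in sonicated DMPG vesicles at 0.11 mole fraction. Lipase and compound preincubated 30 min, 37° C, in HEPES pH 8.0 buffer with CaCl2.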

hepatic lipase (HL) = hepatic lipase (HL) (Homo sapiens (Human), UniProt P11150); assay: HL assay: hepatic lipase activity with fluorescent substrate A10070 in DMPG vesicles; format: biochemical
Summary of the method: as §1

[1] = EL from conditioned media of HT-1080 cells, 30 min incubation with compound at 37° C., A10070/DMPG vesicles
[2] = HL partially purified from conditioned media of COS cells, 30 min incubation with compound at 37° C., A10070/DMPG vesicles

Chain of hepatic lipase (HL) (P11150 23-499, species assumed): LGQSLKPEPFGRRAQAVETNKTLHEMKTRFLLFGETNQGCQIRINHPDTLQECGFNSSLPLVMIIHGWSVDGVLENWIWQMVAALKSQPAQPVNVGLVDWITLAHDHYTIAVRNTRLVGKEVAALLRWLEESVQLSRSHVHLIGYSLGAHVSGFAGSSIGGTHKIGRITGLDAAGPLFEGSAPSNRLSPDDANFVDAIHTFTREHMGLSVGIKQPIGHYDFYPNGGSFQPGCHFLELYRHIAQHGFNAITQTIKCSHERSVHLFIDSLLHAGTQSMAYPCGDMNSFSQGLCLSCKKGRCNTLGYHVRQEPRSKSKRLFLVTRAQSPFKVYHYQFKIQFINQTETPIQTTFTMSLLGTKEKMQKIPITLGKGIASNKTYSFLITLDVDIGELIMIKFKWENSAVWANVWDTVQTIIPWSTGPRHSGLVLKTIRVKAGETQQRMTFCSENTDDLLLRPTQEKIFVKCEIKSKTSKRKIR
Chain of Endothelial lipase (EL) (Q9Y5X9 21-500): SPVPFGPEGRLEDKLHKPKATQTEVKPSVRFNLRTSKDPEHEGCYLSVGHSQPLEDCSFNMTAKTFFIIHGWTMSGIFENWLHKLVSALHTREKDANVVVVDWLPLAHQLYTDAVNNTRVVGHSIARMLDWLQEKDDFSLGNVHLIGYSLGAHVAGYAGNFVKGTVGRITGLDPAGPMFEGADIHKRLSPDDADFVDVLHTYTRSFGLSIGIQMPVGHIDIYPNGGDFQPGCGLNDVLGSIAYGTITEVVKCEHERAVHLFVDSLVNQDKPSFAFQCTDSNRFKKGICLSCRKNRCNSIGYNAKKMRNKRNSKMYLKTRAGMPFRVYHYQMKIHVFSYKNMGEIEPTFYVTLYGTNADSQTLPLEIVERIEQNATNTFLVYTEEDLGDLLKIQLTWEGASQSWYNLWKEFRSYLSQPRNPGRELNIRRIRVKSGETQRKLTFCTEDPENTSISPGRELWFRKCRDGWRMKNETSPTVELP

Compound	pIC50 (Endothelial lipase (EL))	pIC50 (hepatic lipase (HL))	pIC50 (Endothelial lipase (EL); [1])	pIC50 (hepatic lipase (HL); [2])
CS(=O)(=O)C(C(=O)NCCS(N)(=O)=O)c1nc2ccc(-c3ccnc(O)c3)cc2s1 (centres unmarked) [Example B189, 2-(methylsulfonyl)-2-(6-(2-oxo-1,2-dihydro-4-pyridinyl)-1,3-benzothiazol-2-yl)-N-(2-sulfamoylethyl)acetamide]	> 8.00	7.89		
COCCS(=O)(=O)C(C(=O)NCCS(N)(=O)=O)c1nc2ccc(-c3ccnc(O)c3)cc2s1 (centres unmarked) [Example B190, 2-((2-methoxyethyl)sul-fonyl)-2-(6-(2-oxo-1,2-dihydro-4-pyridinyl)-1,3-benzothiazol-2-yl)-N-(2-sulfamoylethyl)acetamide]	> 8.00	6.57		
NS(=O)(=O)CCNC(=O)C(c1nc2ccc(-c3ccnc(O)c3)cc2s1)S(=O)(=O)CCC(F)(F)F (centres unmarked) [Example B191, 2-(6-(2-oxo-1,2-dihydro-4-pyridinyl)-1,3-benzothiazol-2-yl)-N-(2-sulfamoylethyl)-2-((3,3,3-trifluoropropyl)sulfonyl)a-cetamide]	> 8.00	6.35		
CS(=O)(=O)C(C(=O)NCCS(N)(=O)=O)c1nc2ccc(-c3cc(O)ncc3F)cc2s1 (centres unmarked) [Example B192, 2-(6-(5-fluoro-2-oxo-1,2-dihydro-4-pyridinyl)-1,3-benzothiazol-2-yl)-2-(methylsulfonyl)-N-(2-sulfamoylethyl)acetamide]	> 8.00	4.69		
CS(=O)(=O)C(C(=O)NCCS(N)(=O)=O)c1nc2ccc(-c3ccnc(O)c3F)cc2s1 (centres unmarked) [Example B193, 2-[6-(3-fluoro-2-hydroxy-4-pyridinyl)-1,3-benzothiazol-2-yl]-2-(methylsulfonyl)-N-(2-sulfamoylethyl)acetamide]	9.30	6.62		
CS(=O)(=O)C(C(=O)NCCS(N)(=O)=O)c1nc2cc(-c3ccnc(O)c3)ccc2s1 (centres unmarked) [Example B194, 2-(methylsulfonyl)-2-(5-(2-oxo-1,2-dihydro-4-pyridinyl)-1,3-benzothiazol-2-yl)-N-(2-sulfamoylethyl)acetamide]	8.70	7.02		
CS(=O)(=O)C(C(=O)NCCS(N)(=O)=O)c1nc2cc(-c3ccc(O)nc3)ccc2s1 (centres unmarked) [Example B195, 2-(methylsulfonyl)-2-(5-(6-oxo-1,6-dihydro-3-pyridinyl)-1,3-benzothiazol-2-yl)-N-(2-sulfamoylethyl)acetamide]	9.00	6.98		
CC(C)(C)OC(=O)c1ccc2nc(C(C(=O)NCCS(N)(=O)=O)S(=O)(=O)CCC(F)(F)F)sc2c1 (centres unmarked) [Example B196, tert-Butyl 2-(2-oxo-2-((2-sulfamoylethyl)amino)-1-((3,3-trifluoropropyl)sulfonyl)ethyl)benzo[d]thiazole-6-carboxylate]			7.19	6.42
NS(=O)(=O)CCNC(=O)C(c1nc2ccc(C(=O)N3CCC(F)(F)C3)cc2s1)S(=O)(=O)CCC(F)(F)F (centres unmarked) [Example B197, 2-(6-(3,3-Difluoropyrrolidine-1-carbonyl)benzo[d]thiazol-2-yl)-N-(2-sulfamoylethyl)-2-((3,3,3-trifluoropropyl)sulfonyl)acetamide]			> 8.00	5.00
NS(=O)(=O)CCNC(=O)C(c1nc2ccc(C(=O)NCCc3c[nH]cn3)cc2s1)S(=O)(=O)CCC(F)(F)F (centres unmarked) [Example B198, N-(2-(1H-imidazol-4-yl)ethyl)-2-(2-oxo-2-((2-sulfamoylethyl)amino)-1-((3,3,3-trifluoropropyl)sul-fonyl)ethyl)-1,3-benzothiazole-6-carboxamide]	6.83	5.41		
CC(C)c1cc(CNC(=O)c2ccc3nc(C(C(=O)NCCS(N)(=O)=O)S(=O)(=O)CCC(F)(F)F)sc3c2)on1 (centres unmarked) [Example B199, N-((3-isopropyl-5-isoxazolyl)methyl)-2-(2-oxo-2-((2-sulfamoylethyl)a-mino)-1-((3,3,3-trifluoropropyl)sulfonyl)eth-yl)-1,3-benzothiazole-6-carboxamide]	6.78	5.44		
NS(=O)(=O)CCNC(=O)C(c1nc2ccc(C(=O)N3CC(F)(F)C3)cc2s1)S(=O)(=O)CCC(F)(F)F (centres unmarked) [Example B200, 2-(6-((3,3-difluoro-1-azetidinyl)carbonyl)-1,3-benzothiazol-2-yl)-N-(2-sulfamoylethyl)-2-((3,3,3-trifluoropropyl)sulfonyl)a-cetamide]	7.59	5.00		
NS(=O)(=O)CCNC(=O)C(c1nc2ccc(C(=O)N3CCc4ccccc4C3)cc2s1)S(=O)(=O)CCC(F)(F)F (centres unmarked) [Example B201, 2-(6-(3,4-dihydro-2(1H)-isoquinolinylcarbonyl)-1,3-benzothiazol-2-yl)-N-(2-sulfamoylethyl)-2-((3,3,3-trifluoropropyl)sulfonyl)a-cetamide]	7.64	6.51		
COCCNC(=O)c1cccc(-c2ccc3nc(C(C(=O)NCCS(N)(=O)=O)S(=O)(=O)CCC(F)(F)F)sc3c2)c1 (centres unmarked) [Example B202, N-(2-methoxyethyl)-3-(2-(2-oxo-2-((2-sulfamoylethyl)amino)-1-((3,3,3-trifluoropropyl)sulfonyl)ethyl)benzo[d]thiazol-6-yl)benzamide]			7.62	6.77
Cc1cc2nc(C(C(=O)NCCS(N)(=O)=O)S(C)(=O)=O)sc2cc1-c1cnn(C)c1 (centres unmarked) [Example B203, 2-(5-methyl-6-(1-methyl-1H-pyrazol-4-yl)-1,3-benzothiazol-2-yl)-2-(methylsulfonyl)-N-(2-sulfamoylethyl)acetamide]			8.00	6.85
COCCS(=O)(=O)C(C(=O)NCc1nnc(C)o1)c1nc2ccc(-c3ccccc3)cc2s1 (centres unmarked) [Example B204, 2-(2-methoxyethane-sulfonyl)-N-[(5-methyl-1,3,4-oxadiazol-2-yl)methyl]-2-(6-phenyl-1,3-benzothiazol-2-yl)a-cetamide]	7.63	7.76		
COC(=O)CCS(=O)(=O)C(C(=O)NCc1nnc(C)o1)c1nc2ccc(-c3ccccc3)cc2s1 (centres unmarked) [Example B205, methyl 3-({[(5-methyl-1,3,4-oxadiazol-2-yl)meth-yl]carbamoyl}(6-phenyl-1,3-benzothiazol-2-yl)methanesulfonyl)pro-panoate]	6.69	7.00		
CS(=O)(=O)C(C(=O)NCCS(N)(=O)=O)c1nc2ccc(-c3ccc(Cl)cc3)cc2s1 (centres unmarked) [Example B207, 2-[6-(4-chlorophenyl)-1,3-benzothiazol-2-yl]-2-methanesulfonyl-N-(2-sulfamoylethyl)acetamide]	8.85	8.55		
CS(=O)(=O)C(C(=O)NCCS(N)(=O)=O)c1nc2ccc(-c3cccc(Cl)c3)cc2s1 (centres unmarked) [Example B208, 2-[6-(3-chlorophenyl)-1,3-benzothiazol-2-yl]-2-methanesulfonyl-N-(2-sulfamoylethyl)acetamide]	9.10	9.10		
CS(=O)(=O)C(C(=O)NCCS(N)(=O)=O)c1nc2ccc(-c3cc(F)cc(Cl)c3)cc2s1 (centres unmarked) [Example B209, 2-[6-(3-chloro-5-fluorophenyl)-1,3-benzothiazol-2-yl]-2-methanesulfonyl-N-(2-sulfamoylethyl)acetamide]	8.10	7.86		
CS(=O)(=O)C(C(=O)NCCS(N)(=O)=O)c1nc2ccc(-c3ccc(C(N)=O)cc3)cc2s1 (centres unmarked) [Example B214, 4-(2-{methanesulfonyl[(2-sul-famoylethyl)carbamoyl]meth-yl}-1,3-benzothiazol-6-yl)benzamide]	8.80	6.80		
COCc1cccc(-c2ccc3nc(C(C(=O)NCCS(N)(=O)=O)S(C)(=O)=O)sc3c2)c1 (centres unmarked) [Example B215, 2-methanesulfonyl-2-{6-[3-(methoxymethyl)phen-yl]-1,3-benzothiazol-2-yl}-N-(2-sulfamoylethyl)a-cetamide]	8.36	8.44		
CS(=O)(=O)C(C(=O)NCCS(N)(=O)=O)c1nc2ccc(-c3ccc(C(=O)NC4CC4)cc3)cc2s1 (centres unmarked) [Example B216, N-cyclopropyl-4-(2-{methanesulfonyl[(2-sulfa-moylethyl)carbamoyl]meth-yl}-1,3-benzothiazol-6-yl)benzamide]	8.68	6.81		
CC(C)Oc1ccc(-c2ccc3nc(C(C(=O)NCCS(N)(=O)=O)S(C)(=O)=O)sc3c2)cc1Cl (centres unmarked) [Example B217, 2-{6-[3-chloro-4-(propan-2-yloxy)phenyl]-1,3-benzothiazol-2-yl}-2-methanesulfonyl-N-(2-sulfamoylethyl)acetamide]	8.64	8.44		
CC(C)(C)OC(=O)n1ccc(-c2ccc3nc(C(C(=O)NCCS(N)(=O)=O)S(C)(=O)=O)sc3c2)c1 (centres unmarked) [Example B220, tert-butyl 3-(2-{methanesulfonyl[(2-sulfa-moylethyl)carbamoyl]meth-yl}-1,3-benzothiazol-6-yl)-1H-pyrrole-1-carboxylatc]	7.29	8.55		
CS(=O)(=O)C(C(=O)NCCS(N)(=O)=O)c1nc2ccc(-c3cnn(CCC(F)(F)F)c3)cc2s1 (centres unmarked) [Example B221, 2-methanesulfonyl-N-(2-sulfamoylethyl)-2-{6-[1-(3,3,3-trifluoropropyl)-1H-pyrazol-4-yl]-1,3-benzothiazol-2-yl}acetamide]	7.11	6.51		
CS(=O)(=O)C(C(=O)NCCS(N)(=O)=O)c1nc2ccc(-c3cncs3)cc2s1 (centres unmarked) [Example B222, 2-methanesulfonyl-N-(2-sulfamoylethyl)-2-[6-(1,3-thiazol-5-yl)-1,3-benzothiazol-2-yl]a-cetamide]	7.91	7.50		
CS(=O)(=O)C(C(=O)NCCS(N)(=O)=O)c1nc2ccc(-c3ccc(-c4nnc(N)s4)cc3)cc2s1 (centres unmarked) [Example B223, 2-{6-[4-(5-amino-1,3,4-thiadiazol-2-yl)phenyl]-1,3-benzothiazol-2-yl}-2-methanesulfonyl-N-(2-sulfamoylethyl)acetamide]	8.92	8.11		
